Measured values taken from patent US8980911B2, “Heterocyclic compounds as protein kinase inhibitors” (Daiichi Sankyo Company, Limited, priority 2011, dated 2015).

Tests used:
Type in all cases: biochemical
[1] = molecular target: T1, JAK1 (Homo sapiens, UniProt P23458); assay: In vitro enzyme assay (cell-free HTRF kinase assay), JAK1; conditions: catalytic domain aa 850-1154, GST-tag; ATP 60 μM, SRCtide 400 nM, reaction 120 min
T1 construct: JAK1 (aa 850-1154) and TYK2 (aa 871-1187) are expressed with an N-terminally fused GST-tag; GST (N); purchased Carna Bioscience, Inc; host or cells: baculovirus expression system
Summary of the method: (§1)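 Catalytic-domain human kinases (baculovirus-expressed; JAK1 GST-tagged aa 850-1154, JAK2/JAK3 His-tagged) reacted with biotin-SRCtide and ATP in HEPES pH 7.5, MgCl2, DTT buffer, 1% DMSO, at room temperature. EDTA stop (10 mM final), then ULight-streptavidin/Eu-anti-phosphotyrosine overnight at 4 °C; HTRF 665/615 ratio gave IC50.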

[2] = molecular target: T2, JAK2 (Homo sapiens, UniProt O60674); assay: In vitro enzyme assay (cell-free HTRF kinase assay), JAK2; conditions: catalytic domain, His-tag; ATP 10 μM, SRCtide 25 nM, reaction 30 min
T2 construct: All enzymes only contain the catalytic domain; His (N); purchased Carna Bioscience, Inc; host or cells: baculovirus expression system
Summary of the method: as §1

[3] = molecular target: T3, JAK3 (Homo sapiens, UniProt P52333); assay: In vitro enzyme assay (cell-free HTRF kinase assay), JAK3; conditions: catalytic domain, His-tag; ATP 3 μM, SRCtide 100 nM, reaction 30 min
T3 construct: All enzymes only contain the catalytic domain; His (N); purchased Carna Bioscience, Inc; host or cells: baculovirus expression system
Summary of the method: as §1

T1 sequence (P23458 850-1154): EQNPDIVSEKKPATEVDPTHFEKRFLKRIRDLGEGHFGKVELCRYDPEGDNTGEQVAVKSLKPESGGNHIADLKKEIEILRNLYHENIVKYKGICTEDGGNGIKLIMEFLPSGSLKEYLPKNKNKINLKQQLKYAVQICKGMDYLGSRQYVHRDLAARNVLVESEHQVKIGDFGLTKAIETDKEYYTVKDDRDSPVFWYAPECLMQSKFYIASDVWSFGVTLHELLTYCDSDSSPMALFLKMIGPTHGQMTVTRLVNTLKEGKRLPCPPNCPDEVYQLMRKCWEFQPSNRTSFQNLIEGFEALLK
T3 sequence (P52333 822-1111 limits assumed): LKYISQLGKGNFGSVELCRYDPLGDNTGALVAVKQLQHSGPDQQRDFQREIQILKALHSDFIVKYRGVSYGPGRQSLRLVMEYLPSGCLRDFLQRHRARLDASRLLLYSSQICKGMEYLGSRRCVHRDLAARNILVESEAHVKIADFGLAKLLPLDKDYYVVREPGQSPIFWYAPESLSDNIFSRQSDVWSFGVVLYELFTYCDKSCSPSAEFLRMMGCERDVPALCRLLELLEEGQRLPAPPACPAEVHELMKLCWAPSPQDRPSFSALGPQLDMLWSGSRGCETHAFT
T2 sequence (O60674 849-1124 limits assumed): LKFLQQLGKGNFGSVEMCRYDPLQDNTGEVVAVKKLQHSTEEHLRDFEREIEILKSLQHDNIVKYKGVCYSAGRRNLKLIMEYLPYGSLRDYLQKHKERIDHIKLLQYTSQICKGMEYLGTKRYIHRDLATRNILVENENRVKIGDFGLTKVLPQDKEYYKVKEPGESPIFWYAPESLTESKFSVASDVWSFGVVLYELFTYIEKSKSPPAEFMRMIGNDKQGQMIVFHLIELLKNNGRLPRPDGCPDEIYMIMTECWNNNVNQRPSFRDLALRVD

Structure (SMILES)	IC50 [1]	IC50 [2]	IC50 [3]
CN(CCO)C(=O)Nc1cc(Cl)c(C(=O)n2ccc3c(NC(=O)C4CC4)nccc32)c(Cl)c1 [Compound No. 112, N-[1-(2,6-Dichloro-4-{[(2-hydroxyethyl)(methyl)carbamoyl]amino}benzoyl)-1H-pyrrolo[3,2-c]pyridin-4-yl]cyclopropanecarboxamide]	< 1000 nM	< 500 nM	< 500 nM
O=C(NCCCN1CCOCC1)c1cc(Cl)c(C(=O)c2c[nH]c3c(NC(=O)C4CC4)nccc23)c(Cl)c1 [Compound No. 31, 3,5-Dichloro-4-({7-[(cyclopropylcarbonyl)amino]-1H-pyrrolo[2,3-c]pyridin-3-yl}carbonyl)-N-[3-(morpholin-4-yl)propyl]benzamide]	< 500 nM	< 1000 nM	< 500 nM
O=C(Nc1nccc2c1ccn2C(=O)c1c(Cl)cccc1Cl)C1CC1 [Compound No. 77, N-[1-(2,6-Dichlorobenzoyl)-1H-pyrrolo[3,2-c]pyridin-4-yl]cyclopropanecarboxamide]	< 1000 nM	< 500 nM	< 500 nM
O=C(NCCN1CCCCC1)c1cc(Cl)c(C(=O)n2ccc3c(NC(=O)C4CC4)nccc32)c(Cl)c1 [Compound No. 150, 3,5-Dichloro-4-({4-[(cyclopropylcarbonyl)amino]-1H-pyrrolo[3,2-c]pyridin-1-yl}carbonyl)-N[2-(piperidin-1-yl)ethyl]benzamide]	< 500 nM	< 500 nM	< 500 nM
CC(=O)Nc1nccc2c(C(=O)c3c(Cl)cc(C(=O)NCCN4CCCC4)cc3Cl)c[nH]c12 [Compound No. 44, 4-{[7-(Acetylamino)-1H-pyrrolo[2,3-c]pyridin-3-yl]carbonyl}-3,5-dichloro-N-[2-(pyrrolidin-1-yl)ethyl]benzamide]	< 1000 nM	< 1000 nM	< 1000 nM
CCNCc1cc(Cl)c(C(=O)n2ccc3c(NC(=O)C4CC4)nccc32)c(Cl)c1 [Compound No. 164, N-(1-{2,6-Dichloro-4-[(ethylamino)methyl]benzoyl}-1H-pyrrolo[3,2-c]pyridin-4-yl)cyclopropanecarboxamide]	< 500 nM	< 500 nM	< 500 nM
CN(C)CCNC(=O)c1cc(Cl)c(C(=O)c2c[nH]c3c(NC(=O)C4CC4)nccc23)c(Cl)c1 [Compound No. 33, 3,5-Dichloro-4-({7-[(cyclopropylcarbonyl)amino]-1H-pyrrolo[2,3-c]pyridin-3-yl}carbonyl)-N-[2-(dimethylamino)ethyl]benzamide]	< 100 nM	< 100 nM	< 100 nM
CCNCc1cc(Cl)c(C(=O)c2c[nH]c3c(NC(=O)C4CC4)nccc23)c(Cl)c1 [Compound No. 67, N-(3-{2,6-Dichloro-4-[(ethylamino)methyl]benzoyl}-1H-pyrrolo[2,3-c]pyridin-7-yl)cyclopropanecarboxamide]	< 100 nM	< 500 nM	< 100 nM
O=C(Nc1nccc2c1ccn2C(=O)c1c(Cl)cc(CO)cc1Cl)C1CC1 [Compound No. 96, N-{1-[2,6-Dichloro-4-(hydroxymethyl)benzoyl]-1H-pyrrolo[3,2-c]pyridin-4-yl}cyclopropanecarboxamide]	< 1000 nM	< 500 nM	< 500 nM
O=C(NCCc1cccnc1)c1cc(Cl)c(C(=O)n2ccc3c(NC(=O)C4CC4)nccc32)c(Cl)c1 [Compound No. 169, 3,5-Dichloro-4-({4-[(cyclopropylcarbonyl)amino]-1H-pyrrolo[3,2-c]pyridin-1-yl}carbonyl)-N-[2-(pyridin-3-yl)ethyl]benzamide]	< 1000 nM	< 500 nM	< 1000 nM
Cc1noc(C)c1-c1cc(Cl)c(C(=O)c2c[nH]c3c(NC(=O)C4CC4)nccc23)c(Cl)c1 [Compound No. 23, N-{3-[2,6-Dichloro-4-(3,5-dimethyl-1,2-oxazol-4-yl)benzoyl]-1H-pyrrolo[2,3-c]pyridin-7-yl}cyclopropanecarboxamide]	< 1000 nM	< 500 nM	< 500 nM
CC(CO)NC(=O)c1cc(Cl)c(C(=O)n2ccc3c(NC(=O)C4CC4)nccc32)c(Cl)c1 (stereo not drawn) [Compound No. 151, 3,5-Dichloro-4-({4-[(cyclopropylcarbonyl)amino]-1H-pyrrolo[3,2-c]pyridin-1-yl}carbonyl)-N-(1-hydroxypropan-2-yl)benzamide]	< 1000 nM	< 500 nM	< 500 nM
N#Cc1cc(Cl)c(C(=O)n2ccc3cnc(NC(=O)C4CC4)cc32)c(Cl)c1 [Compound No. 137, N-[1-(2,6-dichloro-4-cyanobenzoyl)-1H-pyrrolo[3,2-c]pyridin-6-yl]cyclopropanecarboxamide]	< 500 nM	< 50 nM	< 500 nM
O=C(NCCCN1CCOCC1)c1cc(Cl)c(C(=O)n2ccc3c(NC(=O)C4CC4)nccc32)c(Cl)c1 [Compound No. 149, 3,5-Dichloro-4-({4-[(cyclopropylcarbonyl)amino]-1H-pyrrolo[3,2-c]pyridin-1-yl}carbonyl)-N-[3-(morpholin-4-yl)propyl]benzamide]	< 500 nM	< 1000 nM	< 500 nM
O=C(NCC1CCCNC1)c1cc(Cl)c(C(=O)n2ccc3c(NC(=O)C4CC4)nccc32)c(Cl)c1 (stereo not drawn) [Compound No. 171, 3,5-Dichloro-4-({4-[(cyclopropylcarbonyl)amino]-1H-pyrrolo[3,2-c]pyridin-1-yl}carbonyl)-N-(piperidin-3-ylmethyl)benzamide]	< 500 nM	< 100 nM	< 100 nM
O=C(NCC(O)CO)c1cc(Cl)c(C(=O)n2ccc3c(NC(=O)C4CC4)nccc32)c(Cl)c1 (stereo not drawn) [Compound No. 143, 3,5-Dichloro-4-({4-[(cyclopropylcarbonyl)amino]-1H-pyrrolo[3,2-c]pyridin-1-yl}carbonyl)-N-(2,3-dihydroxypropyl)benzamide]	< 1000 nM	< 500 nM	< 50 nM
O=C(c1c(F)cccc1Cl)c1c[nH]c2cnc(NC(=O)C3CC3)cc12 [Compound No. 19, N-[3-(2-Chloro-6-fluorobenzoyl)-1H-pyrrolo[2,3-c]pyridin-5-yl]cyclopropanecarboxamide]	< 500 nM	< 50 nM	< 500 nM
CC(=O)Nc1cc(Cl)c(C(=O)c2c[nH]c3c(NC(=O)C4CC4)nccc23)c(Cl)c1 [Compound No. 27, N-{3-[4-(Acetylamino)-2,6-dichlorobenzoyl]-1H-pyrrolo[2,3-c]pyridin-7-yl}cyclopropanecarboxamide]	< 1000 nM	< 500 nM	< 100 nM
